{"source": "patent US8518989B2", "about": "“Prodrugs of short-chain fatty acids and treatment methods” (Georgia Health Sciences University Research Institute, Inc., priority 2005, dated 2013)", "key": {"[1]": {"system": "MCF7 cells transfected with SMCT1 cDNA", "assay": "Colony formation assay in MCF7 cells transfected with SMCT1 cDNA", "format": "cell-based, human", "conditions": "SMCT1-expressing MCF7 cells"}, "human SLC5A8 [2]": {"biological_target": "T1, human SLC5A8 (Homo sapiens, UniProt Q8N695, F251V/V193I)", "T1 construct": "We amplified the coding region of SLC5A8 mRNA by RT-PCR using human intestinal mRNA as the template; expressed in transfected cells; host or cells: Xenopus laevis oocytes, 50 ng capped cRNA from the pGH19 construct", "T1 sequence (Q8N695 1-610 V193I/F251V)": "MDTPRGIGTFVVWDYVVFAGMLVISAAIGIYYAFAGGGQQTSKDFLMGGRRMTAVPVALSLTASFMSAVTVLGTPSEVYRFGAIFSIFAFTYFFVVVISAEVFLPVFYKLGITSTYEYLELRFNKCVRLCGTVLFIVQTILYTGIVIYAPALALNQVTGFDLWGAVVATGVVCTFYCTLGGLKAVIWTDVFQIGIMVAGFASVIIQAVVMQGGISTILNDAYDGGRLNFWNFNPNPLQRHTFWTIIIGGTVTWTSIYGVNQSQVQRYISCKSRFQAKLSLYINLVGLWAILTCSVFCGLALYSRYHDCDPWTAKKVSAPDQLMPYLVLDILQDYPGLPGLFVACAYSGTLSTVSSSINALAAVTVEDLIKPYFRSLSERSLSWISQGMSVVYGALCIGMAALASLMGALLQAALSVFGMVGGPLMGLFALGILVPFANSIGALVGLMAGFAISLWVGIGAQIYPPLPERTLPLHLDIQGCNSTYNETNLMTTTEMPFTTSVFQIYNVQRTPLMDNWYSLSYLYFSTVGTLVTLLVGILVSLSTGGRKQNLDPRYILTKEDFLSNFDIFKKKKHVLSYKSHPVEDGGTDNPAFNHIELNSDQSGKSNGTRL", "assay": "Uptake of radiolabeled short-chain fatty acids in Xenopus oocytes injected with SLC5A8 cRNA", "format": "cell-based", "conditions": "1 h incubation", "procedure": "(§1) The amplified human SLC5A8 cDNA was expressed heterologously in Xenopus oocytes by cRNA injection. Capped cRNA from SLC5A8 cDNA was synthesized using the mMESSAGE mMACHINE kit (Ambion Inc., Austin, Tex.). Mature oocytes (stage 1V or V) from Xenopus laevis were injected with 50 ng cRNA. Uninjected oocytes served as controls. The oocytes were used for uptake and electrophysiological studies 3-6 days after cRNA injection. Uptake of radiolabeled substrates in uninjected and cRNA-injected oocytes was determined as described previously (Fei, Y. J., et al., (1995) Biochemistry 34, 8744-8751).\n(§2) Eight oocytes were used for each uptake measurement. Electrophysiological studies were performed by the two-microelectrode voltage clamp method (11. Wang, H., Fei, et al., (2000) Am. J. Physiol. 278:C1019-C1030; Inoue, K, et al. (2004) Biochem. J. 378:949-957).\nUptake of short-chain fatty acids in uninjected oocytes and in oocytes injected with SLC5A8 cRNA was measured with 1 h incubation. Concentration of substrates (labeled plus unlabeled) varied in the range of 50-500 μM depending on the specific radioactivity of the substrates. Eight oocytes were used for each uptake measurement. Data represent means±SE."}, "HDAC": {"system": "HDAC", "assay": "HDAC activity in a cell-free system with MCF7 cell lysate", "format": "biochemical, human", "procedure": "Measurement of HDAC activity in a cell-free system: This was done using a commercially available assay kit (BioVision). MCF7 cell lysate was used as a source of HDAC activity. 50 μg of lysate protein was incubated with various monocarboxylates (1 mM), or trichostatin A (20 μM), and the reaction was initiated by the addition of HDAC substrate. The reaction was then terminated and the deacetylated product was measured according to the manufacturer's instructions. The activity is expressed in nmoles of deacetylated product formed per μg of MCF7 cell lysate protein per 30 min."}, "human SLC5A8 [3]": {"biological_target": "T1, human SLC5A8", "assay": "Two-microelectrode voltage clamp of substrate-induced currents in SLC5A8-expressing oocytes", "format": "cell-based", "procedure": "as §1, §2\nOocytes were perfused with a NaCl-containing buffer (100 mM NaCl, 2 mM KCl, 1 mM MgCl2, 1 mM CaCl2, 3 mM Hepes, 3 mM Mes, and 3 mM Tris, pH 7.5), followed by the same buffer containing different fatty acids. The membrane potential was clamped at −50 mV. The differences between the steady-state currents measured in the presence and absence of substrates were considered as the substrate-induced currents. To investigate the current-membrane potential (I—V) relationship, step changes in membrane potential were applied, each for a duration of 100 ms in 20-mV increments. The kinetic parameter K0.5 (i.e. the substrate concentration necessary for the induction of half-maxima) current) was calculated by fitting the values of the substrate-induced currents to Michaelis-Menten equation. The Na^+-activation kinetics was analyzed by measuring the substrate-specific currents in the presence of increasing concentrations of Na^+. The data were analyzed by the Hill equation to determine the Hill coefficient (h; the number of Na^+ ions involved in the activation process). The kinetic parameters were determined using the computer program Sigma Plot, version 6.0 (SPSS, Inc., Chicago, Ill.). Electrophysiological measurements of substrate-induced currents were repeated at least four times with separate oocytes. The data are presented as means±S.E. of these replicates.\nThe charge-to substrate transfer ratio was determined for propionate in four different oocytes as described previously (Wang, H., et al. (2000) Am. J. Physiol. 278:C1019-C1030 12. Inoue, K., Fei, Y. J., Zhuang, L., Gopal, E., Miyauchi, S., and Ganapathy, V. (2004) Biochem. J. 378:949-957). The oocytes were perfused with 25 μM propionate (unlabeled plus radiolabeled propionate), and inward currents were monitored over a period of 8-10 min. At the end of the experiment, the amount of propionate transported into the oocytes was calculated by measuring the radioactivity associated with the oocytes. The area within the curve describing the relationship between the time and inward current was integrated to calculate the charge transferred into the oocyte during incubation with propionate. The values for substrate transfer and charge transfer were used to determine the charge to substrate transfer ratio."}}, "data": [{"smiles": "CC(=O)O", "note": "[acetate]", "values": [{"measurement": "Effect on cell growth / apoptosis", "setting": "[1]", "value": "no effect on cell growth"}, {"measurement": "Fold increase of uptake (cRNA-injected over uninjected)", "setting": "human SLC5A8 [2]", "value": 1.8, "unit": "fold"}, {"measurement": "Uptake, cRNA-injected oocytes", "setting": "human SLC5A8 [2]; SLC5A8 cRNA-injected oocytes", "value": "0.059 ± 0.003"}, {"measurement": "Uptake, uninjected oocytes", "setting": "human SLC5A8 [2]; uninjected control oocytes", "value": "0.032 ± 0.001"}, {"measurement": "HDAC inhibition (in words)", "setting": "HDAC", "value": "least potent"}, {"measurement": "Relative magnitude of substrate-induced currents", "setting": "human SLC5A8 [3]; 5 mM, -50 mV", "value": "intermediate"}, {"measurement": "K0.5 for SLC5A8", "setting": "human SLC5A8 [3]; four oocytes", "value": "2.46 ± 0.89", "unit": "mM"}]}]}
